# Test results reported in patent US12187723B2 (BRISTOL-MYERS SQUIBB COMPANY, priority 2019, dated 2025).
# Biological target: T1, human TLR9 (Homo sapiens, UniProt Q9NR96)
# T1 construct: host or cells: HEK-Blue cells
# T1 sequence (Q9NR96 26-1032): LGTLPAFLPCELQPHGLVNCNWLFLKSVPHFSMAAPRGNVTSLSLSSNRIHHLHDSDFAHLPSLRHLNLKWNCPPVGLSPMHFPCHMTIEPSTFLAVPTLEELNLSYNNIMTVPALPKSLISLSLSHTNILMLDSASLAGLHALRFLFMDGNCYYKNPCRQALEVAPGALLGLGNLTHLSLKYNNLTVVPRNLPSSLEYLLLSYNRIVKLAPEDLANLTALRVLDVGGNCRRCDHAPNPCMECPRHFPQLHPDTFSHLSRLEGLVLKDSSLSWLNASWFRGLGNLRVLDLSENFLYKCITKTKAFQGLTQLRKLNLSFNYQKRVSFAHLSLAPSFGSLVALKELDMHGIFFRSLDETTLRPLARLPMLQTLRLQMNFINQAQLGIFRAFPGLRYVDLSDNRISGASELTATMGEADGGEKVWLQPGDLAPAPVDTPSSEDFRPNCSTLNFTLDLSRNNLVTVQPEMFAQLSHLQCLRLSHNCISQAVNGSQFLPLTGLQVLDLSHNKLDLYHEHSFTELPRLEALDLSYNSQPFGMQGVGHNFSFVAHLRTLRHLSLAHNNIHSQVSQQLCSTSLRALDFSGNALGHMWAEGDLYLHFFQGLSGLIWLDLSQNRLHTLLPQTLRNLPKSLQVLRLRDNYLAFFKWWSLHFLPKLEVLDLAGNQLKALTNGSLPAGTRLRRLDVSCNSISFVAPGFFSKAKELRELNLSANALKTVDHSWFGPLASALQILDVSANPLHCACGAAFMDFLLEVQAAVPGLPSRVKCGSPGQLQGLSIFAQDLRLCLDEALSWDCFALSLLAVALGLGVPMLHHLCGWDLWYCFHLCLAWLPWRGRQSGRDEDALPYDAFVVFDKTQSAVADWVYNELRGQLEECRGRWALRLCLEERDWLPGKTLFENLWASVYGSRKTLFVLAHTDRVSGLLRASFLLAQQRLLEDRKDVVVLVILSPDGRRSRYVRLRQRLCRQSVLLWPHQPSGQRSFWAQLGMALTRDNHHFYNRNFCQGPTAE
# Assay: TLR9 inhibition reporter assay (HEK-Blue SEAP)
# Assay type: cell-based
# Details: HEK-Blue cells overexpressing human TLR9, ODN2006 5 nM, 22 hour incubation
# Summary of the method: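 Dose–response from 0.05 nM to 50 μM was run in HEK-Blue human TLR7, TLR8 and TLR9 reporter cells. After 30 min at room temperature with compound, ligand was added (TLR7 gardiquimod 7.5 μM; TLR8 R848 15.9 μM; TLR9 ODN2006 5 nM) and SEAP measured next day, at 22 h.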
row,SMILES,IC50 [µM]
1,"CCc1cc2c(cc1-c1cc(OC)c3ncnn3c1)[nH]c(=O)n2[C@@H]1CCCN(C2CCOC2)C1 (stereo partly drawn) [Example 212, 6-ethyl-5-(8-methoxy-[1,2,4]triazolo[1,5-a]pyridin-6-yl)-1-((3R)-1-(tetrahydrofuran-3-yl)piperidin-3-yl)-1,3-dihydro-2H-benzo[d]imidazol-2-one]",> 50
2,"CCc1cc2c(cc1-c1cc(OC)c3ncnn3c1)[nH]c(=O)n2[C@@H]1CCCN(C2CCOC2)C1 (stereo partly drawn) [Example 213, 6-ethyl-5-(8-methoxy-[1,2,4]triazolo[1,5-a]pyridin-6-yl)-1-((3R)-1-(tetrahydrofuran-3-yl)piperidin-3-yl)-1,3-dihydro-2H-benzo[d]imidazol-2-one]",> 50
3,"CCc1cc2c(cc1-c1cc(OC)c3ncnn3c1)[nH]c(=O)n2[C@@H]1CCCN(C2CCCOC2)C1 (stereo partly drawn) [Example 215, 6-ethyl-5-(8-methoxy-[1,2,4]triazolo[1,5-a]pyridin-6-yl)-1-((3R)-1-(tetrahydro-2H-pyran-3-yl)piperidin-3-yl)-1,3-dihydro-2H-benzo[d]imidazol-2-one]",21
4,"COc1cc(-c2cc3[nH]c(=O)n([C@@H]4CCCN(C5CCOC5)C4)c3cc2C(C)C)cn2ncnc12 (stereo partly drawn) [Example 216, 6-isopropyl-5-(8-methoxy-[1,2,4]triazolo[1,5-a]pyridin-6-yl)-1-((3R)-1-(tetrahydrofuran-3-yl)piperidin-3-yl)-1,3-dihydro-2H-benzo[d]imidazol-2-one]",> 50
5,"COc1cc(-c2cc3[nH]c(=O)n([C@@H]4CCCN(C5CCOC5)C4)c3cc2C(C)C)cn2ncnc12 (stereo partly drawn) [Example 217, 6-isopropyl-5-(8-methoxy-[1,2,4]triazolo[1,5-a]pyridin-6-yl)-1-((3R)-1-(tetrahydrofuran-3-yl)piperidin-3-yl)-1,3-dihydro-2H-benzo[d]imidazol-2-one]",> 50
6,"COc1cc(-c2cc3[nH]c(=O)n([C@H]4CCCN(CC(N)=O)C4)c3cc2C(C)C)cn2ncnc12 [Example 220, (S)-2-(3-(6-isopropyl-5-(8-methoxy-[1,2,4]triazolo[1,5-a]pyridin-6-yl)-2-oxo-2,3-dihydro-1H-benzo[d]imidazol-1-yl)piperidin-1-yl)acetamide]",> 50
7,"COCCN1CCC[C@H](n2c(=O)[nH]c3cc(-c4cc(OC)c5ncnn5c4)c(C(C)C)cc32)C1 [Example 221, (S)-6-isopropyl-5-(8-methoxy-[1,2,4]triazolo[1,5-a]pyridin-6-yl)-1-(1-(2-methoxyethyl)piperidin-3-yl)-1,3-dihydro-2H-benzo[d]imidazol-2-one]",20.6
8,"COc1cc(-c2cc3[nH]c(=O)n([C@H]4CCCN(CCS(C)(=O)=O)C4)c3cc2C(C)C)cn2ncnc12 [Example 222, (S)-6-isopropyl-5-(8-methoxy-[1,2,4]triazolo[1,5-a]pyridin-6-yl)-1-(1-(2-(methylsulfonyl)ethyl)piperidin-3-yl)-1,3-dihydro-2H-benzo[d]imidazol-2-one]",> 50
9,"COc1cc(-c2cc3[nH]c(=O)n(C4CCN(CCS(C)(=O)=O)CC4)c3cc2C(C)C)cn2ncnc12 [Example 224, 6-isopropyl-5-(8-methoxy-[1,2,4]triazolo[1,5-a]pyridin-6-yl)-1-(1-(2-(methylsulfonyl)ethyl)piperidin-4-yl)-1,3-dihydro-2H-benzo[d]imidazol-2-one]",> 50
10,"COCCN1CCC[C@@H](n2c(=O)[nH]c3cc(-c4cc(OC)c5ncnn5c4)c(C(C)C)cc32)C1 [Example 226, (R)-6-isopropyl-5-(8-methoxy-[1,2,4]triazolo[1,5-a]pyridin-6-yl)-1-(1-(2-methoxyethyl)piperidin-3-yl)-1,3-dihydro-2H-benzo[d]imidazol-2-one]",14.2
11,"CCc1cc2c(cc1-c1cc(OC)c3ncnn3c1)[nH]c(=O)n2[C@@H]1CCCN(CCOC)C1 [Example 227, (R)-6-ethyl-5-(8-methoxy-[1,2,4]triazolo[1,5-a]pyridin-6-yl)-1-(1-(2-methoxyethyl)piperidin-3-yl)-1,3-dihydro-2H-benzo[d]imidazol-2-one]",15.2
12,"COc1cc(-c2cc3[nH]c(=O)n(C4CCC(N5CCCC5)CC4)c3cc2C(C)C)cn2ncnc12 (centres unmarked) [Example 231, 6-isopropyl-5-(8-methoxy-[1,2,4]triazolo[1,5-a]pyridin-6-yl)-1-(4-(pyrrolidin-1-yl)cyclohexyl)-1,3-dihydro-2H-benzo[d]imidazol-2-one]",15.1

# Continued by falling IC50, values first:
row,IC50 [µM],SMILES
1,14.1,"CCc1cc2c(cc1-c1cc(OC)c3ncnn3c1)[nH]c(=O)n2[C@@H]1CCCN(C(=O)CN(C)C)C1 [Example 228, (R)-1-(1-(dimethylglycyl)piperidin-3-yl)-6-ethyl-5-(8-methoxy-[1,2,4]triazolo[1,5-a]pyridin-6-yl)-1,3-dihydro-2H-benzo[d]imidazol-2-one]"
2,13.2,"COCCN1CCC(n2c(=O)[nH]c3cc(-c4cc(OC)c5ncnn5c4)c(C(C)C)cc32)CC1 [Example 223, 6-isopropyl-5-(8-methoxy-[1,2,4]triazolo[1,5-a]pyridin-6-yl)-1-(1-(2-methoxyethyl)piperidin-4-yl)-1,3-dihydro-2H-benzo[d]imidazol-2-one]"
3,13,"COc1cc(-c2cc3[nH]c(=O)n(C4CCC(N5CCC6(CC5)COC6)CC4)c3cc2C(C)C)cn2ncnc12 (centres unmarked) [Example 239, 1-(4-(2-oxa-7-azaspiro[3.5]nonan-7-yl)cyclohexyl)-6-isopropyl-5-(8-methoxy-[1,2,4]triazolo[1,5-a]pyridin-6-yl)-1,3-dihydro-2H-benzo[d]imidazol-2-one]"
4,12.7,"CCc1cc2c(cc1-c1cc(OC)c3ncnn3c1)[nH]c(=O)n2[C@@H]1CCCN(CC2CCCC2)C1 [Example 209, (R)-1-(1-(cyclopentylmethyl)piperidin-3-yl)-6-ethyl-5-(8-methoxy-[1,2,4]triazolo[1,5-a]pyridin-6-yl)-1,3-dihydro-2H-benzo[d]imidazol-2-one]"
5,11.3,"COc1cc(-c2cc3[nH]c(=O)n(C4CCC(N5CC(OC)C5)CC4)c3cc2C(C)C)cn2ncnc12 (centres unmarked) [Example 237, 6-isopropyl-5-(8-methoxy-[1,2,4]triazolo[1,5-a]pyridin-6-yl)-1-(4-(3-methoxyazetidin-1-yl)cyclohexyl)-1,3-dihydro-2H-benzo[d]imidazol-2-one]"
6,8.09,"COc1cc(-c2cc3[nH]c(=O)n(C4CCC(N5CC(OC)C5)CC4)c3cc2C(C)C)cn2ncnc12 (centres unmarked) [Example 238, 6-isopropyl-5-(8-methoxy-[1,2,4]triazolo[1,5-a]pyridin-6-yl)-1-(4-(3-methoxyazetidin-1-yl)cyclohexyl)-1,3-dihydro-2H-benzo[d]imidazol-2-one]"
7,7.78,"COc1cc(-c2cc3[nH]c(=O)n(C4CCC(N5CCCC5)CC4)c3cc2C(C)C)cn2ncnc12 (centres unmarked) [Example 232, 6-isopropyl-5-(8-methoxy-[1,2,4]triazolo[1,5-a]pyridin-6-yl)-1-(4-(pyrrolidin-1-yl)cyclohexyl)-1,3-dihydro-2H-benzo[d]imidazol-2-one]"
8,4.63,"COc1cc(-c2cc3[nH]c(=O)n([C@H]4CC[C@H](NC5CCN(C(C)C)CC5)CC4)c3cc2C(C)C)cn2ncnc12 [Example 207, 6-isopropyl-1-((1r,4r)-4-((1-isopropylpiperidin-4-yl)amino)cyclohexyl)-5-(8-methoxy-[1,2,4]triazolo[1,5-a]pyridin-6-yl)-1,3-dihydro-2H-benzo[d]imidazol-2-one]"
9,3.32,"CCc1cc2c(cc1-c1cc(OC)c3ncnn3c1)[nH]c(=O)n2[C@@H]1CCCN(CCC(C)(C)C)C1 [Example 208, (R)-1-(1-(3,3-dimethylbutyl)piperidin-3-yl)-6-ethyl-5-(8-methoxy-[1,2,4]triazolo[1,5-a]pyridin-6-yl)-1,3-dihydro-2H-benzo[d]imidazol-2-one]"
10,2.98,"COc1cc(-c2cc3[nH]c(=O)n([C@@H]4CCCN(CC5CCCC5)C4)c3cc2C(C)C)cn2ncnc12 [Example 211, (R)-1-(1-(cyclopentylmethyl)piperidin-3-yl)-6-isopropyl-5-(8-methoxy-[1,2,4]triazolo[1,5-a]pyridin-6-yl)-1,3-dihydro-2H-benzo[d]imidazol-2-one]"
11,2.36,"COc1cc(-c2cc3[nH]c(=O)n([C@@H]4CCCN(CCC(C)(C)C)C4)c3cc2C(C)C)cn2ncnc12 [Example 210, (R)-1-(1-(3,3-dimethylbutyl)piperidin-3-yl)-6-isopropyl-5-(8-methoxy-[1,2,4]triazolo[1,5-a]pyridin-6-yl)-1,3-dihydro-2H-benzo[d]imidazol-2-one]"
